Patent publication EP0843554B1, “ASCORBYL-PHOSPHORYL-CHOLESTEROL” (AVON PRODUCTS, INC., priority 1996, dated 1997)

Test system: cultured human skin fibroblasts
Experiment: [^3H]-Proline Incorporation Assay (collagen biosynthesis)
Assay type: cell-based
Conditions: fibroblasts incubated with 11.3, 22.5 and 45 µg/ml for 48 hours; radioactive counts of newly synthesized [^3H]-hydroxyproline; numbers only in a chart image
Description: An art-recognized [^3H]-Proline Incorporation Assay was performed with different doses of 3'-(L-ascorbyl-2-phosphoryl)-cholesterol. Juva, Anal. Biochem., Vol. 15, pages 77-83 (1966); Booth, Biochim. Biophys. Acta, Vol. 675, pages 117-122 (1981).
Fibroblasts were incubated with 0 µg/ml, 11.3 µg/ml, 22.5 µg/ml and 45 µg/ml of 3'-(L-ascorbyl-2-phosphoryl)-cholesterol for a total of 48 hours. After the first 24 hours [^3H]-labeled proline was added to the culture. Following the second 24 hour period the cells were harvested and prepared for the collagen biosynthesis assay.
Protease inhibitors were added to prevent degradation of collagen and other proteins. The cell layer was scraped into a solution containing 0.4 M NaCl and 0.01 M Tris (pH 7.5). Extracts were sonicated to disrupt cell membranes. Separate volumes of the cell-containing solution (1 ml each) were dialyzed overnight against several changes of deionised water. The retentate was removed from dialysis and hydrolyzed in 6 N hydrochloric acid at 120°C overnight. The assay was performed using an oxidation process with 2 M chloramine-T. Samples were analyzed for radioactive counts, which represent the amount of newly synthesized [^3H]-hydroxyproline -- an index for new collagen synthesis.

CC(C)CCC[C@@H](C)[C@H]1CC[C@H]2[C@@H]3CC=C4C[C@@H](OP(=O)(O)OC5=C(O)[C@@H]([C@@H](O)CO)OC5=O)CC[C@]4(C)[C@H]3CC[C@]12C [3'-(L-ascorbyl-2-phosphoryl)-cholesterol]
production of new collagen: increased production of new collagen by human skin fibroblasts in a dose-dependent manner
